# Experimental data from ChEMBL document CHEMBL2331519, “Sesquiterpenes from the rhizomes of Curcuma heyneana” (J Nat Prod, 2013).
# Columns and labels:
# [1] = molecular target: T1, Tyrosine-protein phosphatase non-receptor type 2 (Homo sapiens) (UniProt P17706); assay: (§1) Inhibition of TCPTP (unknown origin) assessed as decrease in p-nitrophenol production from pNPP substrate after 30 mins by HTS7000 bioassay reader analysis
# T1 sequence (whole entry): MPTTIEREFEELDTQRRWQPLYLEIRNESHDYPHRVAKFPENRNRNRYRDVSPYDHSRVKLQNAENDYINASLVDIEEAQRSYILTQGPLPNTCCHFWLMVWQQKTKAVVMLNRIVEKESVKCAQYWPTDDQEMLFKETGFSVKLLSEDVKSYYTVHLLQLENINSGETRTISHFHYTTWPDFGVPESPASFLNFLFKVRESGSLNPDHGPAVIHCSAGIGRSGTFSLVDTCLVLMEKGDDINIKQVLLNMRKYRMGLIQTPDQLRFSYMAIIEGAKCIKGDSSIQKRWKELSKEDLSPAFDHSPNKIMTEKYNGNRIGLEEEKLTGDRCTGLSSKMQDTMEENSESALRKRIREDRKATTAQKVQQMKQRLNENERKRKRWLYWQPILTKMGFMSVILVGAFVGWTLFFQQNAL
# [2] = molecular target: T2, Tyrosine-protein phosphatase non-receptor type 2 (Homo sapiens, UniProt P17706); assay: as §1
# T2 sequence (P17706 whole entry): T1 sequence (whole entry)
# [3] = molecular target: T3, Tyrosine-protein phosphatase non-receptor type 1 (Homo sapiens, UniProt P18031); assay: Inhibition of PTP1B (unknown origin) assessed as decrease in p-nitrophenol production from pNPP substrate after 30 mins by HTS7000 bioassay reader analysis
# T3 sequence (P18031 whole entry): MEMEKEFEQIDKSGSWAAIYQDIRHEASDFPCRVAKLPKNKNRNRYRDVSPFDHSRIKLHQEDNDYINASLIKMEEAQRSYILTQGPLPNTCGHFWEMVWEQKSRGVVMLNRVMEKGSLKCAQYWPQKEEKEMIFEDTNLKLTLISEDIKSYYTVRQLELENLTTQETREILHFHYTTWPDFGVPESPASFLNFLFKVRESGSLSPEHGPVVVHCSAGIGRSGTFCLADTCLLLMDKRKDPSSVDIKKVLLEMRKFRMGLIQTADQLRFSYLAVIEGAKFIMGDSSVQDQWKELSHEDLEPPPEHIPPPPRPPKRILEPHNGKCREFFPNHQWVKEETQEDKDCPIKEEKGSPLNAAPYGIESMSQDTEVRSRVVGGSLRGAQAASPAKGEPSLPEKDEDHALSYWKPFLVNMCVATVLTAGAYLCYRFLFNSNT
# [4] = molecular target: T4, Tyrosine-protein phosphatase non-receptor type 1 (Homo sapiens) (UniProt P18031); assay: Inhibition of PTP1B (unknown origin) assessed as decrease in p-nitrophenol production from pNPP substrate at 25 ug/ml after 30 mins by HTS7000 bioassay reader analysis
# T4 sequence (whole entry): T3 sequence (P18031 whole entry)
SMILES,inhibition [1],IC50 [2] [µM],IC50 [3] [µM],inhibition [4] [%]
CC(C)=C1C[C@@H](O)[C@@](C)(O)CC[C@H](O)/C(C)=C\C1=O [HEYNEANONE A],Dose-dependent effect,62,42.5,77.5
C/C1=C/C(=O)/C(C(C)(C)O)=C\C=C(\C)C(=O)CC1,,,,< 65
C=C(C)[C@@H]1CC[C@](C)(O)[C@H]2CC[C@](C)(O)[C@H]2C1,,,,< 65
CC(C)=C1C[C@H]2[C@@H](CC[C@]2(C)O)C(CO)=CC1=O,,,,< 65
CC(C)=C1C[C@H]2[C@@H](CC[C@]2(C)O)[C@](C)(O)CC1=O,,,,< 65
C=C(C)[C@H]1CC[C@@](C)(O)[C@H]2CC[C@](C)(O)[C@H]2C1,,,,< 65
C=C(C)[C@@H]1CC[C@H](C)[C@]12CC(=C(C)C)C(=O)O2,,,,< 65
C=C(C)[C@@H]1CC[C@@H](C)[C@@]12C=C(C(C)(C)O)C(=O)O2,,,,< 65
C=C(C)[C@@H]1CC[C@@]2(C)OC(=O)C(=C(C)C)C[C@@H]12,,,,< 65
CCCCCCCCCCCCCCCC(=O)C1=C(O)[C@@H](CO)OC1=O,,5.1,5.62,99.1
C=C(C)[C@@H]1CC[C@@]2(C)[C@H](O)CC[C@@](C)(O)[C@@H]2C1,,,,< 65
C[C@H]1[C@H](C)CC[C@]2(C(=O)O)CC[C@]3(C)C(=CC[C@@H]4[C@@]5(C)CC[C@H](O)C(C)(C)[C@@H]5CC[C@]43C)[C@H]12 [URSOLIC ACID],,2.4,,96.7
C=C1CC[C@H]2C(C)(C)CCC[C@]2(C)[C@H]1/C=C/C(C)=O,Dose-dependent effect,9.3,14.7,88.8
C=C(C)[C@@H]1CC[C@]2(C)OC(=O)C(=C(C)C)C[C@@H]12,,,,< 65
CC1=CC(=O)C(=C(C)C)C[C@@H]2[C@@](C)(O)CC[C@]12O [AERUGIDIOL],Dose-dependent effect,45.9,35.7,87.5
CC(C)=C1C[C@H]2[C@H](CC[C@]2(C)O)[C@@](C)(O)CC1=O,,,,< 65
C=C(C)[C@H]1CC[C@H](C)[C@]12CC(=C(C)C)C(=O)O2,,,,< 65
CC1=CC(=O)[C@@]2(C[C@]3(O)[C@@H](C)CC[C@@H]13)OC2(C)C,,,,< 65

# Results, then the compound that gave them:
inhibition [1],IC50 [2] [µM],IC50 [3] [µM],inhibition [4] [%],SMILES
Dose-dependent effect,7.4,10.4,96.7,C=C1CC[C@H]2C(C)(C)CCC[C@]2(C)[C@H]1C/C=C(\C=O)CC(=O)O [ZERUMIN A]
,,,< 65,CC(C)=C1C[C@@H](O)[C@](C)(O)CC[C@H](O)/C(C)=C\C1=O
Dose-dependent effect,15.7,35.1,86,CC(C)=C1C[C@H]2[C@@H](CC[C@@]2(C)O)[C@@](C)(O)CC1=O
Dose-dependent effect,36.7,35.2,86.2,CC(C)=C1C[C@@H](O)[C@@](C)(O)CC[C@@H](O)/C(C)=C\C1=O [HEYNEANONES C]
,,,< 65,C=C(C)[C@@H]1CC[C@H](C)[C@@]12C=C(C(C)(C)O)C(=O)O2
,,,< 65,C=C1C[C@]2(O)O[C@@]3(CC2=C(C)C)[C@@H](C)CC[C@@H]13
Dose-dependent effect,26.8,45.6,69.3,CC1=CC(=O)C(=C(C)C)C[C@H]2[C@H]1CC[C@]2(C)O [PROCURCUMENOL]
,,,< 65,CC1=C[C@@]2(O)O[C@@]3(C/C2=C(/C)CO)[C@@H](C)CC[C@@H]13
